From patent publication US7741346B2, “Angiogenesis inhibitor” (Santen Pharmaceutical Co., Ltd., priority 2001, dated 2010)

Assays:
[1] = system: normal human umbilical vein endotherial cells (HUVEC); assay: VEGF-induced HUVEC proliferation (in vitro angiogenesis inhibition test); type: cell-based; conditions: Homo sapiens, HUVEC, 72 h, 10 μM test compound, 10 ng/ml VEGF, three days after adding VEGF, WST-8 absorbance at 450 nm; read-out: Inhibitory rate (%) (cell growth inhibitory rate to the control)
Description: (1) Angiogenesis Inhibition Tests Using Human Endothelial Cells
The effects of the present compounds on the in vitro angiogenesis were evaluated by using vascular endothelial growth factor (VEGF)-induced normal human umbilical vein endotherial cells (HUVEC) proliferation system (Cancer Res., 59, 99-106 (1999)), wherein inhibitory effects of drugs on cell growth reactions induced by treating HUVEC with VEGF as an in vitro angiogenesis evaluation model.
The present compound was dissolved in DMSO and then diluted with a medium to prepare 40 μM test compound solution.
2×10^3 cells/well of HUVEC was seeded onto a type I collagen coated 96-well plate. After one day, 25 μl of the 40 μM test compound solution and a 0.8% DMSO solution as a control were added to each well (final concentration; 10 μM of the test compound and 0.2% of DMSO). One hour after adding the test compound, 25 μl of 40 ng/ml VEGF solution was added to each well(final concentration; 10 ng/ml of VEGF). Three days after adding VEGF, a WST-8 assay reagent (manufactured by Dojin Chemical Co., Ltd.) was added to each well in an amount of 10 μl, and absorbance at 450 nm was measured.
Calculating cell growth inhibitory rates (%) to the control, angiogenesis inhibitory rates of almost all of the test compounds were 80% or higher.

SMILES	inhibition at 10 µM [1] [%]	melting point [°C]
CCCCCN(CCC1CCCCC1)C(=O)NCC(C)Cc1ccncc1 (centres unmarked) [Compound No. 1-118, 1-(2-Cyclohexylethyl)-3-[2-methyl-3-(4-pyridyl)propyl]-1-pentylurea]	81.6	
CCCCCN(CCC12CC3CC(CC(C3)C1)C2)C(=O)CCCCc1ccncc1 [Compound No. 2-14, 5-(4-Pyridyl)valeric acid N-[2-(1-adamantyl)ethyl]-N-pentylamide]	83.4	
CC(CNC(=O)N(CCN(C)C(=O)OC(C)(C)C)CCC12CC3CC(CC(C3)C1)C2)Cc1ccncc1 (centres unmarked) [Compound No. 1-107]	83.2	
CCCCCN(CCC12CC3CC(CC(C3)C1)C2)C(=O)CSCCc1ccncc1 [Compound No. 2-18, 2-[2-(4-Pyridyl)ethylthio]acetic acid N-[2-(1-adamantyl)ethyl]-N-pentylamide]	82.2	
Cl.O=C(NCCCc1ccncc1)N(CCC12CC3CC(CC(C3)C1)C2)CCC12CC3CC(CC(C3)C1)C2		120 to 122.5
O=C(NCCCc1ccncc1)N(CCCCC(F)(F)F)CCC12CC3CC(CC(C3)C1)C2 [Compound No. 1-106, 1-[2-(1-Adamantyl)ethyl]-3-[3-(4-pyridyl)propyl]-1-(5,5,5-trifluoropentyl)urea]		116.9 to 118.9
CCCN(CCCCC12CC3CC(CC(C3)C1)C2)C(=O)NCCCc1ccncc1 [Compound No. 1-125, 1-[4-(1-Adamantyl)butyl]-1-propyl-3-[3-(4-pyridyl)propyl]urea]		110 to 110.5
CCN(CCCCC12CC3CC(CC(C3)C1)C2)C(=O)NCCCc1ccncc1 [Compound No. 1-124, 1-[4-(1-Adamantyl)butyl]-1-ethyl-3-[3-(4-pyridyl)propyl]urea]		92.7 to 93.7
CCCCCN(CCC1CCCCC1)C(=O)NCc1ccncc1 [Compound No. 1-52, 1-(2-Cyclohexylethyl)-1-pentyl-3-(4-pyridyl)methylurea]		64.7 to 65.8
CCCCCN(CCc1ccccc1)C(=O)NCC(C)Cc1ccncc1 (centres unmarked) [Compound No. 1-115, 3-[2-Methyl-3-(4-pyridyl)propyl]-1-pentyl-1-phenethylurea]		49 to 50
O=C(N(CCCc1ccncc1)Cc1ccccc1)N(CCCc1ccccc1)C1CCCCC1 [Compound No. 1-60, 1-Cyclohexyl(phenyl)methyl-1-(3-phenylpropyl)-3-[3-(4-pyridyl)propyl]urea]		107 to 112
O=C(NCCCc1ccncc1)N(CCC12CC3CC(CC(C3)C1)C2)Cc1ccccc1 [Compound No. 1-43, 1-[2-(1-Adamantyl)ethyl]-1-benzyl-3-[3-(4-pyridyl)propyl]urea]		130.5 to 135
O=C(NCCCc1ccncc1)N(CCCC12CC3CC(CC(C3)C1)C2)CC(F)(F)F [Compound No. 1-123, 1-[3-(1-Adamantyl)propyl]-3-[3-(4-pyridyl)propyl]-1-(2,2,2-trifluoroethyl)urea]		88.9 to 90
Cl.O=C1CCN(CCC2CCCCC2)C(=O)N1Cc1ccncc1		64 to 74.5
CCCCCN(CCC12CC3CC(CC(C3)C1)C2)C(=O)NCCCc1cccnc1 [Compound No. 1-84, 1-[2-(1-Adamantyl)ethyl]-1-pentyl-3-[3-(3-pyridyl)propyl]urea]		99.9 to 105.2
CCCCCN(CCC12CC3CC(CC(C3)C1)C2)C(=O)NCCC(C)c1ccncc1 (centres unmarked) [Compound No. 1-104, 1-[2-(1-Adamantyl)ethyl]-1-pentyl-3-[3-(4-pyridyl)butyl]urea]		93 to 98
CC(C)(C)OC(=O)CCN(CCC12CC3CC(CC(C3)C1)C2)C(=O)NCCCc1ccncc1 [Compound No. 1-69, 1-[2-(1-Adamantyl)ethyl]-1-[2-(t-butoxycarbonyl)ethyl]-3-[3-(4-pyridyl)propyl]urea]		124.5 to 127
Cl.O=C1CCN(CCC23CC4CC(CC(C4)C2)C3)C(=O)N1CCCc1ccncc1		177 to 178.5
CC(C)CCN(CCC(C)C)C(=O)NCCCc1ccncc1.Cl		120.5 to 131.7
CCCCCN(CCC12CC3CC(CC(C3)C1)C2)C(=O)NCc1ccccn1 [Compound No. 1-72, 1-[2-(1-Adamantyl)ethyl]-1-pentyl-3-(2-pyridyl)methylurea]		87.5 to 92
CCCCCNC(=O)N(CCCc1ccncc1)CCC12CC3CC(CC(C3)C1)C2 [Compound No. 1-66, 1-[2-(1-Adamantyl)ethyl]-3-pentyl-1-[3-(4-pyridyl)propyl]urea]		47 to 50

SMILES	inhibition at 10 µM [1] [%]	melting point [°C]
CCCN(CCCC12CC3CC(CC(C3)C1)C2)C(=O)NCCCc1ccncc1.O=P(O)(O)O		148 to 149
CCCCCN(CCC12CC3CC(CC(C3)C1)C2)C(=O)CNCCc1ccncc1.Cl.Cl		133.7 to 137
O=C(NCCCc1ccncc1)N(C1CCCCC1)C1CCCCC1 [Compound No. 1-61, 1,1-Dicyclohexyl-3-[3-(4-pyridyl)propyl]urea]		143 to 145.5
COCCN(CCC12CC3CC(CC(C3)C1)C2)C(=O)NCCCc1ccncc1 [Compound No. 1-18, 1-[2-(1-Adamantyl)ethyl]-1-(2-methoxyethyl)-3-[3-(4-pyridyl)propyl]urea]		101.5 to 104.5
CCNCCN(CCC12CC3CC(CC(C3)C1)C2)C(=O)NCCCc1ccncc1 [Compound No. 20-1, 1-[2-(1-Adamantyl)ethyl]-1-[2-(N-ethylamino)ethyl]-3-[3-(4-pyridyl)propyl]urea]		96.8 to 104.9
Cl.O=C(NCc1ccncc1)N(CCC1CCCCC1)Cc1cccs1		161.8 to 164.4
CCCCCN(CCC12CC3CC(CC(C3)C1)C2)C(=O)NCC(CC)Cc1ccncc1 (centres unmarked) [Compound No. 1-108, 1-[2-(1-Adamantyl)ethyl]-1-pentyl-3-[2-(4-pyridylmethyl)butyl]urea]		72 to 77
CCCCCN(CCC12CC3CC(CC(C3)C1)C2)C(=O)NC[C@@H]1C[C@@H]1c1ccncc1 (relative stereo) [Compound No. 15-1, cis-1-[2-(1-adamantyl)ethyl]-1-pentyl-3-[2-(4-pyridyl)cyclopropylmethyl]urea]		128 to 130
CCN(CCC12CC3CC(CC(C3)C1)C2)C(=O)NCCCc1ccncc1 [Compound No. 1-41, 1-[2-(1-Adamantyl)ethyl]-1-ethyl-3-[3-(4-pyridyl)propyl]urea]		106 to 115
CCCCCN(CCC12CC3CC(CC(C3)C1)C2)C(=O)NCC(Cc1ccccc1)Cc1ccncc1 (centres unmarked) [Compound No. 1-109, 1-[2-(1-Adamantyl)ethyl]-3-[2-benzyl-3-(4-pyridyl)propyl]-1-pentylurea]		111 to 116
O=C(NCCCc1ccncc1)N(CCCC(F)(F)F)CCC12CC3CC(CC(C3)C1)C2 [Compound No. 1-105, 1-[2-(1-Adamantyl)ethyl]-3-[3-(4-pyridyl)propyl]-1-(4,4,4-trifluorobutyl)urea]		142.6 to 145
CCCCCN(CCC12CC3CC(CC(C3)C1)C2)C(=O)NCCCCc1ccncc1 [Compound No. 1-87, 1-[2-(1-Adamantyl)ethyl]-1-pentyl-3-[4-(4-pyridyl)butyl]urea]		74.1 to 78.1
CCCCCN(CCC12CC3CC(CC(C3)C1)C2)C(=O)NCCc1ccncc1 [Compound No. 1-80, 1-[2-(1-Adamantyl)ethyl]-1-pentyl-3-[2-(4-pyridyl)ethyl]urea]		107 to 118
CC(=O)NN(CCC12CC3CC(CC(C3)C1)C2)C(=O)NCCCc1ccncc1 [Compound No. 10-1, 1-Acetylamino-1-[2-(1-adamantyl)ethyl]-3-[3-(4-pyridyl)propyl]urea]		140 to 146
CCCCN(CCCC12CC3CC(CC(C3)C1)C2)C(=O)NCCCc1ccncc1 [Compound No. 1-122, 1-[3-(1-Adamantyl)propyl]-1-butyl-3-[3-(4-pyridyl)propyl]urea]		79.8 to 80.4
CCCCCN(CCC12CC3CC(CC(C3)C1)C2)C(=O)NCCCc1ccccn1 [Compound No. 1-83, 1-[2-(1-Adamantyl)ethyl]-1-pentyl-3-[3-(2-pyridyl)propyl]urea]		84.4 to 85.7
OCCN(CCc1ccccc1)C(=S)NCCCc1ccncc1 [Compound No. 7-2, 1-(2-Hydroxyethyl)-1-phenethyl-3-[3-(4-pyridyl)propyl]thiourea]		105.6 to 107.1
O=C(NCCCc1ccncc1)N(CC=Cc1ccccc1)CCC12CC3CC(CC(C3)C1)C2 [Compound No. 1-34, 1-[2-(1-Adamantyl)ethyl]-1-cinnamyl-3-[3-(4-pyridyl)propyl]urea]		130 to 134.5
O=C(NCCCc1ccncc1)N1CCOCC1 [Compound No. 1-6, N-[3-(4-Pyridyl)propyl]-4-morpholinecarboxamide]		94 to 98
CC(C)(C)OC(=O)NCCN(CCC12CC3CC(CC(C3)C1)C2)C(=O)NCCCc1ccncc1 [Compound No. 10-8, 1-[2-(1-Adamantyl)ethyl]-1-[2-[N-(t-butoxycarbonyl)amino]ethyl]-3-[3-(4-pyridyl)propyl]urea]		158 to 160.5
